{
  "source": "patent US20250283885A1",
  "about": "“MODULAR BIOSENSOR FOR RECEPTOR TYROSINE KINASE ACTIVITY” (The Trustees of Princeton University, priority 2024, published 2025)",
  "key": {"[1]": {"system": "ErbB2", "assay": "ErbB2 pYtag (with EGFR-Citrine) in NIH 3T3 cells: clearance of cytosolic ZtSH2", "assay_type": "cell-based", "settings": "NIH 3T3, required ITAMs on ErbB2 and co-expression of EGFR", "procedure": "One advantage of the pYtag approach is its modularity: ITAMs can in principle be fused to the C-termini of many different RTKs and recruit ZtSH2 upon stimulation. Therefore, it was tested whether pYtags could be adapted to monitor the activity of receptors other than EGFR. pYtag biosensors were designed for two additional RTKs: 1) ErbB2, a ligandless member of the ErbB family that signals by heterodimerizing with ligand-bound EGFR; and 2) fibroblast growth factor receptor 1 (FGFR1), a non-ErbB family RTK. ErbB2 is a particularly challenging RTK to study because it can only be activated in conjunction with an additional RTK (e.g., EGFR), so Grb2-based biosensors would be unable to distinguish between the activity of EGFR and ErbB2.\nStarting from NIH 3T3 cells expressing iRFP-ZtSH2, cell lines expressing either an ErbB2 pYtag (ErbB2-CD3ε-FusionRed), an FGFR1 pYtag (FGFR1-CD3ε-FusionRed), or ITAM-less variants of each were generated. For the ErbB2 case, cells with EGFR-Citrine were further transduced to express both required components of a functional receptor heterodimer (see FIG. 3, and FIGS. 4A-4B).\nThe pYtag approach is indeed modular, and this strategy can be readily adapted for monitoring the activation of distinct RTKs in individual cells."}, "[2]": {"system": "EGFR and Erk signaling", "assay": "EGFR pYtag and ErkKTR in MCF10A clusters on soft substrata", "assay_type": "cell-based, human", "procedure": "At the tissue scale, the spatiotemporal distribution of RTK signaling can also be regulated by several processes including paracrine signaling, morphogen gradients, and the mechanical properties of the local microenvironment. It was therefore asked whether pYtags could be used to monitor RTK signaling in multicellular contexts.\nTo prepare polyacrylamide substrata, 1.5-mm-thick glass coverslips were pre-treated with glutaraldehyde. First, coverslips were treated with 0.1 N NaOH for 30 min, followed by rinsing with deionized water and air drying. Coverslips were then treated with 2% aminopropyltrimethoxysilane (Sigma Aldrich) in acetone for 30 min, washed three times with acetone, and left to air dry. Coverslips were treated with 0.5% glutaraldehyde (Sigma Aldrich) in PBS for 30 min, washed with deionized water, and left to air dry. Custom glass-bottom dishes were prepared by replacing the bottoms of 35 mm TCPS dishes with glutaraldehyde-treated coverslips, which were sealed using PDMS (Sigma Aldrich).\nTo investigate the dynamics of this spatial pattern, EGFR signaling was monitored using two live-cell biosensors: EGFR pYtag and a kinase translocation reporter for downstream signaling through Erk (ErkKTR)."}, "[3]": {"system": "ErbB2", "assay": "Multiplexed pYtags in NIH 3T3 cells: ErbB2 reporter (iRFP-ZtSH2; ErbB2-CD3ε-FusionRed)", "assay_type": "cell-based", "settings": "100 ng/mL", "text": "Having characterized an orthogonal pair of pYtags, it was recognized that these biosensors could be used to simultaneously monitor the activation of both EGFR and ErbB2. NIH 3T3 cells that co-expressed pYtags for EGFR (Clover-VISH2; EGFR-SLP76-BFP) and ErbB2 (iRFP-ZtSH2; ErbB2-CD3ε-FusionRed) were generated. […] VISH2 cleared from the cytosol almost immediately (<30 sec), indicating rapid phosphorylation of the EGFR C-terminal tail. […] Although the absolute magnitude of tSH2 biosensor clearance varied between cell lines (likely due to differences in affinity and expression level), the dynamics of EGFR and ErbB2 activation were highly reproducible in all cases, irrespective of the cell line or pYtag."}, "[4]": {"biological_target": "EGFR (Homo sapiens, UniProt P00533)", "assay": "EGFR pYtag live-cell imaging: clearance of cytosolic ZtSH2 in NIH 3T3 cells", "description": "Six ITAMs from the CD3γ, CD3δ, CD3ε, and CD3ζ chains of the TCR. In each case, three identical repeats of the ITAM were fused to the C-terminal tail of EGFR followed by the FusionRed fluorescent protein (EGFR-ITAM-FusionRed). Each receptor was the co-expressed with an iRFP-labeled ZtSH2 (iRFP-ZtSH2) in NIH 3T3 fibroblasts, which express negligible levels of EGFR. […] Because ZtSH2 can in principle be recruited rapidly on and off the membrane and may localize to distinct subcellular compartments, it was reasoned that pYtags could be used to monitor the subcellular activity of an RTK in individual cells over time."}, "[5]": {"system": "EGFR R84K or A265V", "assay": "pYtag response of GBM-associated mutant EGFRs in NIH 3T3 cells", "assay_type": "cell-based, mouse", "settings": "20 ng/ml, NIH 3T3 cells expressing R84K or A265V EGFR", "text": "To validate the prediction of our model, the dimerization affinity of EGFR was experimentally altered and signaling responses were monitored using pYtags. One can turn to glioblastoma multiform (GBM)-associated mutations in the extracellular domain of EGFR (R84K and A265V point mutations), which were previously shown to increase the dimerization affinity of EREG- and EPGN-bound receptors. These GBM-associated mutations were first modeled in EGFR by decreasing β and γ by 6-fold and 650-fold, respectively. […] NIH 3T3 cell lines expressing pYtag biosensors of EGFR variants harboring either the R84K or A265V mutation were then generated.\nThe data reveal ligand-dependent EGFR signaling dynamics at unprecedented temporal resolution and point to the dimerization affinity of ligand-bound receptors as a key parameter that governs these responses. More broadly, combining pYtags with mathematical modeling can shed mechanistic insight into the signaling dynamics of RTKs."}},
  "data": [
    {"substance": "EGF: epidermal growth factor, high-affinity EGFR ligand (NSDSECPLSHDGYCLHDGVCMYIEALDKYACNCVVGYIGERCQYRDLKWWELR; Epidermal growth factor; UniProt P01133 971-1023, looked up)", "values": [
      {"measurement": "ZtSH2 response of ErbB2 pYtag-expressing cells", "setting": "[1]", "value": "clearance of ZtSH2 from the cytosol"},
      {"measurement": "Delay in EGFR and Erk signaling between periphery and interior of clusters", "setting": "[2]", "value": "2 to 4", "unit": "min"},
      {"measurement": "Delay of Erk responses behind EGFR responses", "setting": "[2]", "value": "~4", "unit": "min"},
      {"measurement": "Time of ZtSH2 clearance from the cytosol (ErbB2 phosphorylation)", "setting": "[3]", "value": "~3", "unit": "min"}
    ]},
    {"substance": "EREG: epiregulin, low-affinity EGFR ligand", "values": [
      {"measurement": "pYtag signaling response of WT EGFR", "setting": "[4]; 20 ng/ml, NIH 3T3 cells expressing WT EGFR", "value": "transient peak of activation and rapid plateau"},
      {"measurement": "EGFR activity dynamics after low-affinity ligand", "setting": "[4]; varying doses, NIH 3T3 EGFR pYtag", "value": "rapid rise in EGFR activity followed by a plateau within minutes"},
      {"measurement": "pYtag signaling response of GBM-associated mutant EGFR", "setting": "[5]", "value": "stronger response that gradually increased over time"}
    ]}
  ]
}
